From PubChem BioAssay (NCI)
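These data come from cells grown in 96-well plates and exposed to compound for 48 hours at five concentrations. At the GI50, growth is halved. TGI denotes the concentration required for complete inhibition of growth.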

Key:
Assay in all cases: inhibition of tumour cell growth, NCI panel, 48 h
[1] = tested on: MOLT-4 leukemia
[2] = tested on: KM12 colon
[3] = tested on: SNB-19 CNS
[4] = tested on: UO-31 renal
[5] = tested on: K-562 leukemia
[6] = tested on: NCI-H23 lung
[7] = tested on: NCI-H460 lung
[8] = tested on: CAKI-1 renal
[9] = tested on: MDA-MB-435
[10] = tested on: SK-MEL-5 melanoma
[11] = tested on: RXF 393 renal
[12] = tested on: PC-3 prostate
[13] = tested on: SK-MEL-2 melanoma
[14] = tested on: RPMI-8226 leukemia
[15] = tested on: CCRF-CEM leukemia
[16] = tested on: 786-0 renal
[17] = tested on: HL-60(TB) leukemia
[18] = tested on: HCC-2998 colon
[19] = tested on: UACC-257 melanoma
[20] = tested on: SN12C renal
[21] = tested on: NCI-H226 lung
[22] = tested on: SF-268 CNS
[23] = tested on: HOP-62 NSCLC
[24] = tested on: MDA-MB-231 breast
[25] = tested on: SK-OV-3 ovarian
[26] = tested on: IGROV1 ovarian
[27] = tested on: HS 578T breast
[28] = tested on: A549 NSCLC

**Q.** How did the GI50 [1] turn out when `C=C1CC[C@H](C(=C)C)[C@H]2C=C(C)C(=O)C3=C(C(=O)[C@@](C)(O)C3)[C@H]12` was run?
**A.** 1210 nM

**Q.** What about the TGI [1] of the same compound?
**A.** 3.75 µM

**Q.** What about the GI50 [2] of the same compound?
**A.** 1460 nM

**Q.** And the TGI [2]?
**A.** 3.27 µM

**Q.** And the GI50 [3]?
**A.** 1650 nM

**Q.** And the TGI [3]?
**A.** 3.01 µM

**Q.** And the GI50 [4]?
**A.** 1120 nM

**Q.** What about the TGI [4] of the same compound?
**A.** 2320 nM

**Q.** What about the GI50 [5] of the same compound?
**A.** 611 nM

**Q.** What about the TGI [5] of the same compound?
**A.** 13.1 µM

**Q.** And the GI50 [6]?
**A.** 1630 nM

**Q.** And the TGI [6]?
**A.** 3.26 µM

**Q.** And the GI50 [7]?
**A.** 1480 nM

**Q.** And the TGI [7]?
**A.** 4.04 µM

**Q.** What about the GI50 [8] of the same compound?
**A.** 1570 nM

**Q.** What about the TGI [8] of the same compound?
**A.** 2980 nM

**Q.** And the GI50 [9]?
**A.** 1550 nM

**Q.** What about the TGI [9] of the same compound?
**A.** 3.14 µM

**Q.** What about the GI50 [10] of the same compound?
**A.** 1480 nM

**Q.** What about the TGI [10] of the same compound?
**A.** 2830 nM

**Q.** What about the GI50 [11] of the same compound?
**A.** 1510 nM

**Q.** What about the TGI [11] of the same compound?
**A.** 2990 nM

**Q.** And the GI50 [12]?
**A.** 1670 nM

**Q.** And the TGI [12]?
**A.** 3.33 µM

**Q.** And the GI50 [13]?
**A.** 1460 nM

**Q.** And the TGI [13]?
**A.** 2880 nM

**Q.** What about the GI50 [14] of the same compound?
**A.** 1160 nM

**Q.** And the TGI [14]?
**A.** 3.42 µM

**Q.** And the GI50 [15]?
**A.** 2260 nM

**Q.** And the TGI [15]?
**A.** 5.25 µM

**Q.** And the GI50 [16]?
**A.** 1750 nM

**Q.** And the TGI [16]?
**A.** 3.17 µM

**Q.** What about the GI50 [17] of the same compound?
**A.** 853 nM

**Q.** What about the TGI [17] of the same compound?
**A.** 3.76 µM

**Q.** And the GI50 [18]?
**A.** 1280 nM

**Q.** And the TGI [18]?
**A.** 2540 nM

**Q.** What about the GI50 [19] of the same compound?
**A.** 1350 nM

**Q.** What about the TGI [19] of the same compound?
**A.** 2760 nM

**Q.** And the GI50 [20]?
**A.** 1190 nM

**Q.** And the TGI [20]?
**A.** 2550 nM

**Q.** What about the GI50 [21] of the same compound?
**A.** 1470 nM

**Q.** And the TGI [21]?
**A.** 3.06 µM

**Q.** What about the GI50 [22] of the same compound?
**A.** 1580 nM

**Q.** What about the TGI [22] of the same compound?
**A.** 3.36 µM

**Q.** And the GI50 [23]?
**A.** 1760 nM

**Q.** And the TGI [23]?
**A.** 3.27 µM

**Q.** What about the GI50 [24] of the same compound?
**A.** 1390 nM

**Q.** What about the TGI [24] of the same compound?
**A.** 2740 nM

**Q.** What about the GI50 [25] of the same compound?
**A.** 1870 nM

**Q.** What about the TGI [25] of the same compound?
**A.** 3.83 µM

**Q.** And the GI50 [26]?
**A.** 1280 nM

**Q.** What about the TGI [26] of the same compound?
**A.** 2880 nM

**Q.** What about the GI50 [27] of the same compound?
**A.** 3.03 µM

**Q.** What about the TGI [27] of the same compound?
**A.** 17.7 µM

**Q.** And the GI50 [28]?
**A.** 1270 nM

**Q.** What about the TGI [28] of the same compound?
**A.** 3 µM
